≈ marks a conversion by molar mass, not a printed value.
System: Aspergillus fumigatus
Assay: MIC measurement, YAG medium
Assay type: cell-based
Settings: Aspergillus fumigatus, read-out: MIC A. fumigatus
Procedure: Between 1 and 5 mgs of compound were accurately weighed out into a sterile Eppendorf tube. The compound was dissolved in DMSO to give a solution containing […]. Tubes were stored at −20° C. until required.
On the day of testing thawed solutions were vortex mixed to ensure homogeneity. 30 μL of solution was removed and added to 570 μL of sterile water in a separate sterile Eppendorf. The thoroughly mixed solution was used to prepare a series of doubling dilutions in water, in a deep well plate. Thirteen replicate plates were prepared using a Minitrak by aspirating 20 μL from each well into eleven clear polystyrene 96 well plates.
Spores of Aspergillus spp. (Aspergillus fumigatus [two strains], Aspergillus terreus [two strains], Aspergillus niger and Aspergillus flavus) were harvested from cultures grown on Sabarauds agar for 5 days, and resuspended in PBS/Tween 80 to approx 1×10^7 cfu/mL. Other filamentous fungi (Absidia corymbifera, Fusarium solani, Rhizomucor, Scedosporium spp., Trichophyton spp.), were grown on Sabarauds agar for 2-10 days and spores/hyphae resuspended in PBS/Tween to give approx 1×10^7 cfu/mL. Candida species (Candida albicans, Candida glabrata, Candida krusei, Candida parapsilosis and Candida tropicalis) were grown on Sabarauds agar, cells were harvested from the agar using a sterile loop and resuspended in PBS/Tween 80 to approx 1×10^6 cfu/mL. Each organism suspension was diluted in RPMI medium, containing 2% glucose and 0.135 M MOPS buffer (pH 7.0) to 0.5-2×10^4 cfu/mL for Aspergillus spp. and other filamentous fungi and 0.5-2×10^3 cfu/mL for yeast. 80 μL of an organism suspension was added to each well of the plate containing drug dilutions.
This produced MIC plates with a drug range 50-0.05 mg/L and organism inocula of 1-2×10^4 cfu/mL for Aspergillus spp. and other filamentous fungi and 1-2×10^3 cfu/mL for yeasts. All plates were incubated for 24-48 hrs at 35° C. Growth was assessed by monitoring the optical density at 485 nm for each well. The MIC of a compound is the lowest drug concentration that inhibits growth of an organism by >80% compared with a drug free control. MICs are recorded as mg/L. Other growth media can be used for susceptibility testing, and the activity of the described compounds can also be assessed in a medium comprising 1% glucose, 1% ammonium chloride and 0.5% yeast extract (YAG medium). To perform MIC tests in this medium, dilutions of compounds are prepared in microtitre plates as described above. Fungal strains to be tested are grown and harvested in an identical manner to that described above, each organism suspension is then diluted in YAG medium to 0.5-2×10^4 cfu/mL for Aspergillus spp. and other filamentous fungi and 0.5-2×10^3 cfu/mL for yeast. 80 μL of an organism suspension was added to each well of the plate containing drug dilutions. This produced MIC plates with a drug range 50-0.05 mg/L and organism inocula of 1-2×10^4 cfu/mL for Aspergillus spp. and other filamentous fungi and 1-2×10^3 cfu/mL for yeasts. All plates were incubated for 24 hrs at 35° C. Growth was assessed by monitoring the optical density at 485 nm for each well. The MIC of a compound is the lowest drug concentration that inhibits growth of an organism by >70% compared with a drug free control. MICs are recorded as mg/L. In cases where the MIC of an organism is […] mg/L the MIC is repeated using a concentration range of 0.5-0.0005 mg/L. MIC tests in YAG medium have more clear-cut endpoints and have slightly lower MICs than those performed in RPMI medium.
The following organisms were tested: Absidia corymbifera, Aspergillus flavus, Aspergillus fumigatus AF293 and AF210, Aspergillus niger, Aspergillus terreus AT4 and AT49, Candida albicans, Candida glabrata, Candida krusei, Candida parapsilosis, Candida tropicalis, Fusarium solani, Rhizomucor sp., Scedosporium apiospermum, Scedosporium prolificans, Trichophyton mentagrophytes, and Trichophyton rubrum.

SMILES	MIC
O=C1Cc2cc(NC(=O)C(=O)c3c(-c4ccccc4)cc4ccccn34)ccc2N1 [Example 9, 2-Oxo-N-(2-oxo-2,3-dihydro-1H-indol-5-yl)-2-(2-phenyl-indolizin-3-yl)-acetamide]	> 10 µg/mL
CCN(CC)C(=O)Oc1cc(-c2ccc(NC(=O)C(=O)c3c(-c4ccccc4)cc4ccccn34)cc2)on1 [Example 27, Diethyl-carbamic acid-5-{4-[2-oxo-2-(2-phenyl-indolizin-3-yl)-aeetylamino]-phenyl}-isoxazol-3-yl ester]	< 1 µg/mL

Same assay, conditions: Aspergillus fumigatus; YAG medium; MIC banded into grades; strain AF293; read-out: MIC A. fumigatus

SMILES	MIC
O=C(Nc1ccc(N2CCS(=O)(=O)CC2)cc1)C(=O)c1c(-c2ccccc2)cc2ccccn12 [Example 1, N-[4-(1,1-Dioxo-1λ^6-thiomorpholin-4-yl)-phenyl]-2-oxo-2-(2-phenyl-indolizin-3-yl)-acetamide]	> 10 µg/mL
CON=C1CCN(c2ccc(NC(=O)C(=O)c3c(-c4ccccc4)cc4ccccn34)cc2)CC1 [Example 2, N-[4-(4-methoxyimino-piperidin-1-yl)-phenyl]-2-oxo-2-(2-phenyl-indolizin-3-yl)-acetamide]	< 1 µg/mL
O=C(Nc1ccccc1F)C(=O)c1c(-c2ccccc2)cc2ccc3ccccc3n12 [Example 4, N-(2-fluoro-phenyl)-2-oxo-2-(2-phenyl-pyrrolo[1,2-a]quinolin-1-yl)-acetamide]	> 10 µg/mL
CS(=O)(=O)NC(=O)c1ccc(NC(=O)C(=O)c2c(-c3ccccc3)cc3ccccn23)cc1 [Example 5, N-(4-methanesulfonylaminocarbonyl-phenyl)-2-oxo-2-(2-phenyl-indolizin-3-yl)-acetamide]	> 10 µg/mL
COc1ccc(NC(=O)C(=O)c2c(C)c(-c3ccccc3)c3ccccn23)cc1 [Example 6, N-(4-methoxy-phenyl)-2-(2-methyl-1-phenyl-indolizin-3-yl)-2-oxo-acetamide]	> 10 µg/mL
Cc1c(-c2ccccc2)c2ccccn2c1C(=O)C(=O)Nc1ccc(N2CCOCC2)cc1 [Example 7, 2-(2-methyl-1-phenyl-indolizin-3-yl)-N-(4-morpholin-4-yl-phenyl)-2-oxo-acetamide]	> 10 µg/mL
CN1/C(=N/c2ccc(NC(=O)C(=O)c3c(-c4ccccc4)cc4ccccn34)cc2)OCC1(C)C [Example 8, 2-oxo-2-(2-phenyl-indolizin-3-yl)-N-{4-[3,4,4-trimethyl-oxazolidin-(2Z)-ylideneamino]-phenyl}-acetamide]	> 10 µg/mL
CCC(CC)N1CCN(c2ccc(NC(=O)C(=O)c3c(-c4ccccc4Cl)cc4ccccn34)cn2)CC1 [Example 10, 2-[2-(2-chloro-phenyl)-indolizin-3-yl]-N-{6-[4-(1-ethyl-propyl)-piperazin-1-yl]-pyridin-3-yl}-2-oxo-acetamide]	< 1 µg/mL
O=C(Nc1ccc(C(=O)OC2CCOCC2)c(O)c1)C(=O)c1c(-c2ccccc2)cc2ccccn12 [Example 11, 2-hydroxy-4-[2-oxo-2-(2-phenyl-indolizin-3-yl)-acetylamino]-benzoic acid tetrahydro-pyran-4-yl ester]	< 1 µg/mL
Cc1cc(NC(=O)C(=O)c2c(-c3ccccc3)cc3ccccn23)ccc1OCCCn1ccnc1C(C)C [Example 12, N-{4-[3-(2-Isopropyl-imidazol-1-yl)-propoxy]-3-methyl-phenyl}-2-oxo-2-(2-phenyl-indolizin-3-yl)-acetamide]	1 to 10 µg/mL (≈ 1.92 to 19.2 µM)
CC(C)c1nc(C(C)(C)c2cccc(NC(=O)C(=O)c3c(-c4ccccc4)cc4ccccn34)c2)cn1C [Example 14, N-{3-[1-(2-Isopropyl-1-methyl-1H-imidazol-4-yl)-1-methyl-ethyl]-phenyl}-2-oxo-2-(2-phenyl-indolizin-3-yl)-acetamide]	> 10 µg/mL
CC(C)c1ncc(C(C)(C)c2cccc(NC(=O)C(=O)c3c(-c4ccccc4)cc4ccccn34)c2)n1C [Example 15, N-{3-[1-(2-Isopropyl-3-methyl-3H-imidazol-4-yl)-1-methyl-ethyl]-phenyl}-2-oxo-2-(2-phenyl-indolizin-3-yl)-acetamide]	> 10 µg/mL
CC(C)c1nc(C(C)(C)c2ccc(NC(=O)C(=O)c3c(-c4ccccc4)cc4ccccn34)cc2)cn1C [Example 16, N-{4-[1-(2-isopropyl-1-methyl-1H-imidazol-4-yl)-1-methyl-ethyl]-phenyl}-2-oxo-2-(2-phenyl-indolizin-3-yl)-acetamide]	1 to 10 µg/mL (≈ 1.98 to 19.8 µM)
CC(C)c1ncc(C(C)(C)c2ccc(NC(=O)C(=O)c3c(-c4ccccc4)cc4ccccn34)cc2)n1C [Example 17, N-{4-[1-(2-Isopropyl--3-methyl-3H-imidazol-4-yl)-1-methyl-ethyl]-phenyl}-2-oxo-2-(2-phenyl-indolizin-3-yl)-acetamide]	> 10 µg/mL
CC(C)c1nccn1CCOC(=O)C(C)(C)c1ccc(NC(=O)C(=O)c2c(-c3ccccc3)cc3ccccn23)cc1 [Example 18, 2-methyl-2-{4-[2-oxo-2-(2-phenyl-indolizin-3-yl)-acetylamino]-phenyl}-propionic acid 2-(2-isopropyl-imidazol-1-yl)-ethyl ester]	> 10 µg/mL
CN1CCN(c2ccc(NC(=O)C(=O)c3c(-c4ccccc4)cc4ccccn34)cc2-c2ncco2)CC1 [Example 19, N-[4-(4-methyl-piperazin-1-yl)-3-oxazol-2-yl-phenyl]-2-oxo-2-(2-phenyl-indolizin-3-yl)-acetamide]	> 10 µg/mL
Cc1nccn1CCCOc1ccc(NC(=O)C(=O)c2c(-c3ccccc3)cc3ccccn23)cc1C(C)C [Example 20, N-{3-Isopropyl-4-[3-(2-methyl-imidazol-1-yl)-propoxy]-phenyl}-2-oxo-2-(2-phenyl-indolizin-3-yl)-acetamide]	1 to 10 µg/mL (≈ 1.92 to 19.2 µM)
Cc1cc(C)nc(N2CCN(c3ccc(NC(=O)C(=O)c4c(-c5ccccc5)cc5ccccn45)cc3)CC2)c1 [Example 21, N-{4-[4-(4,6-Dimethyl-pyridin-2-yl)-piperazin-1-yl]-phenyl}-2-oxo-2-(2-phenyl-indolizin-3-yl)-acetamide]	< 1 µg/mL
CC(C)c1nccn1CCOC(=O)C(C)(C)c1cccc(NC(=O)C(=O)c2c(-c3ccccc3)cc3ccccn23)c1 [Example 22, 2-Methyl-2-{3-[2-oxo-2-(2-phenyl-indolizin-3-yl)-acetylamino]-phenyl}-propionic acid 2-(2-isopropyl-imidazol-1-yl)-ethyl ester]	> 10 µg/mL
O=C(Nc1ccc(N2CCC3(CC2)OCCO3)cc1)C(=O)c1c(-c2ccccc2)cc2ccccn12 [Example 23, N-[4-(1,4-dioxa-8-aza-spiro[4.5]dec-8-yl)-phenyl}-2-oxo-2-(2-phenyl-indolizine-3-yl)-acetamide]	< 1 µg/mL
Cc1cc(C)nc(N2CCN(c3ccc(NC(=O)C(=O)c4c(-c5ccccc5)cc5ccc(F)cn45)cc3)CC2)c1 [Example 32, N-{4-[4-(4,6-Dimethyl-pyridin-2-yl)-piperazin-1-yl]-phenyl}-2-(6-fluoro-2-phenyl-indolizin-3-yl)-2-oxo-acetamide]	< 1 µg/mL
O=C(Nc1ccc(N2CCN(CCc3ccco3)CC2)cc1)C(=O)c1c(-c2ccccc2)cc2ccccn12 [Example 39, N-{4-[4-(2-Furan-2-yl-ethyl)-piperazin-1-yl]-phenyl}-2-oxo-2-(2-phenyl-indolizin-3-yl)-acetamide]	< 1 µg/mL
C=C(C)CN1CCN(c2ccc(NC(=O)C(=O)c3c(-c4ccc(N5CCOCC5)cc4)cc4ccccn34)cc2)CC1 [Example 40, N-{4-[4-(2-Methyl-allyl)-piperazin-1-yl]-phenyl}-2-[2-(4-morpholin-4-yl-phenyl)-indolizin-3-yl]-2-oxo-acetamide]	> 10 µg/mL
Cc1cccc(N2CCN(c3ccc(NC(=O)C(=O)c4c(-c5ccccc5)cc5ccccn45)cc3)CC2)n1 [Example 43, N-{4-[4-(6-Methyl-pyridin-2-yl)-piperazin-1-yl]-phenyl}-2-oxo-2-(2-phenyl-indolizin-3-yl)-acetainide]	< 1 µg/mL

Source: patent US8604029B2, “2-[(2-substituted)-indolizin-3-yl]-2-oxo-acetamide derivatives as antifungal agents” (F2G Ltd British Body Corporate, priority 2006, dated 2013)
